The values below come from article PMC12257394, “Design, Synthesis, and Biological Evaluation of Ferrocenyl–Cyclo-(Gly‑L‑Pro) Hybrids Sensitizing Multidrug-Resistant Cancer Cells to Anticancer Agents” (ACS Medicinal Chemistry Letters, 2025).

For one data set, the target named is T1, ABCG2 (Homo sapiens, UniProt Q9UNQ0).
T1 construct: ABCG2-overexpressing SW620C and SW620Mito; endogenous in cells; host or cells: SW620Mito (mitoxantrone-resistant variant of SW620, developed in the authors' laboratory by drug selection)
T1 sequence (Q9UNQ0 1-655): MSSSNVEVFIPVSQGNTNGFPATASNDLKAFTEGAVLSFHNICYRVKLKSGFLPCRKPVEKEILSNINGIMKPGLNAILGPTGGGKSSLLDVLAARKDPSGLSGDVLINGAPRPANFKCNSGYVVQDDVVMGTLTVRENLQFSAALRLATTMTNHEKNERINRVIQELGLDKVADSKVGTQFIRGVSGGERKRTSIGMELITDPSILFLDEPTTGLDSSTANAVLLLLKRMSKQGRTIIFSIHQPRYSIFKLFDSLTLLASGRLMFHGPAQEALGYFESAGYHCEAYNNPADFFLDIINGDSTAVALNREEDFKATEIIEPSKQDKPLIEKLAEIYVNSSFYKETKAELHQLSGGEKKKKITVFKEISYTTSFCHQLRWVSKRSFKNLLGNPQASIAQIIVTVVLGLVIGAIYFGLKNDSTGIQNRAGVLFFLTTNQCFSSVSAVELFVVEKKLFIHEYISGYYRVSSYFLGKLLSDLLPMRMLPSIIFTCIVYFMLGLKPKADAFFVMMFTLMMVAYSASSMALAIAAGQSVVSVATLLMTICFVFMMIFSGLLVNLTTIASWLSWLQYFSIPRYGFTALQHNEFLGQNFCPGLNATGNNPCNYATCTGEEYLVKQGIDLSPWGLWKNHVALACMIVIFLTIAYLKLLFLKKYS
Nature of the data set: Pheophorbide A accumulation transport assay in SW620Mito cells. Conditions: 10 µM compound. Type of data set: cell-based. From the text: To confirm the hypothesis of direct interaction between putative ABC protein inhibitors and transporter molecules, we conducted a series of experiments based on fluorescent probe transport as described previously. None of the compounds affected 2′,7′-bis(2-carboxyethyl)-5-(and-6)-carboxyfluorescein (BCECF) efflux out of SW620M cells, indicating the lack of interaction between the putative inhibitors and ABCC1 (Figure A). […] As anticipated, none of the newly synthesized compounds affected dye accumulation in drug-sensitive SW620 cells (data not shown). […]
Respective samples were supplemented with a specific fluorescent marker (100 nM calcein AM for ABCB1, 100 nM BCECF AM for ABCC1, and 1 µM pheophorbide A for A BCG2). […] For ABCB1 and ABCG2 assays (dye accumulation assays), intracellular fluorescence was measured by flow cytometry (FACSymphony A1, Becton, Dickinson and Company, New Jersey, USA) immediately after dye addition (time 0) and every 3–5 min up to approximately 30 min using a flow cytometer set at 488 nm excitation and 530/30 nm emission for the calcein/ABCB1 assay and 400 nm excitation and 655/8 nm emission for the pheophorbide A/ABCG2 assay. […] The intracellular BCECF concentration was then immediately measured at 488 nm excitation and 530/30 nm emission (time 0). […]

Data set [1] in a line: Neutral red uptake viability assay, SW620C. The note with it: human, SW620C cells (cisplatin-resistant); SW620C, 72 h, n = 3; read-out: Cytotoxic activity IC50 (95% CI). Type of data set: cell-based, human. The method, then:
The normal lung fibroblast MRC-5 and colorectal adenocarcinoma SW620 cell lines used in this experiment were purchased from American Type Culture Collection (USA) via LGC […]
described previously.10, 11 All cells were cultured under standard conditions (37°C, 5% CO2, 100% humidity) in high-glucose DMEM supplemented with GlutaMaxTM, HEPES (ThermoFisher Scientific, USA), and 10% fetal bovine serum (EURx, Poland). Cells were routinely tested for potential Mycoplasma contamination using the MycoProbe Mycoplasma Detection kit (R&D System, USA).
In total, 104 cells in 100 µL of complete medium were plated per well of a 96-well plate and left overnight to allow cells to adhere to the surface. Then, the cells were exposed to a desired concentration of tested compound(s). Stock solutions were prepared in DMSO and used immediately. The final DMSO concentration was constant and nontoxic (0.1% v/v). After 70-h incubation, neutral red was added to the final concentration of 1 mM. After another 2 h, the medium was aspirated, and cells were washed twice with PBS. Dye was released using 100 µL of a solubilizer (1% acetic acid in 50% ethanol) on an orbital shaker (10 min). Absorbance was read at 540 nm using EnVision Multilabel Plate Reader (Perkin Elmer, USA). Results were expressed as % of control. The IC50 parameters were calculated using GraphPad Prism version 10 (GraphPad Software, Boston, Massachusetts USA). […]
IC₅₀ values were determined in […]
All experiments were performed in triplicate (n = 3).

A short description of data set [2]: Neutral red uptake viability assay, SW620E. Type of data set: cell-based, human. The note with it: human, SW620E cells (etoposide-resistant), 72 h, n = 3, read-out: Cytotoxic activity IC50 (95% CI). A digest of the protocol:
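Compounds at 1 and 10 μM were tested against the drug-resistant sublines over a 70 h incubation, keeping DMSO at 0.1%. Neutral red absorbance at 540 nm gave viability as % of control.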

With `O=C1N/C(=C\c2ccc(-[c-]3cccc3)cc2)C(=O)N2CCC[C@@H]12.[Fe+2].c1cc[cH-]c1` [(S,Z)-4d], the “increase of intracellular retention of pheophorbide A” value on ABCG2 was not above 2.9 fold.
In the case of `O=C1N/C(=C\c2ccccc2-[c-]2cccc2)C(=O)N2CCC[C@@H]12.[Fe+2].c1cc[cH-]c1` [(S,Z)-4b], the “increase of intracellular retention of pheophorbide A” value at ABCG2 is not above 2.9 fold.
A word on the IC50: it is the point on the concentration scale where inhibition reaches its midpoint. With `O=C1N/C(=C\c2ccccc2)C(=O)N2CCC[C@@H]12` [(S,Z)-4e], the IC50 at 72 h in data set [1] and in data set [2] was more than 100 µM each time.
On to `O=C1N/C(=C/c2ccccc2)C(=O)N2CCC[C@@H]12` [(S,E)-4e], for which the IC50 at 72 h in data set [1] and in data set [2] was more than 100 µM throughout.
